The results in this text go back to patent publication US11046690B2, “Pyridazinones and methods of use thereof” (Goldfinch Bio, Inc., priority 2018, dated 2021).

Structures are written as SMILES. A value given as a limit tells only on which side of the number the result lay.

Usually IC50 stands for the concentration needed to halve the response being measured.

The experiment concerns the target T1, TRPC4 (Homo sapiens, UniProt Q9UBN4).
T1 construct: expressed in transfected cells
T1 sequence (Q9UBN4 1-982 isoform Q9UBN4-5): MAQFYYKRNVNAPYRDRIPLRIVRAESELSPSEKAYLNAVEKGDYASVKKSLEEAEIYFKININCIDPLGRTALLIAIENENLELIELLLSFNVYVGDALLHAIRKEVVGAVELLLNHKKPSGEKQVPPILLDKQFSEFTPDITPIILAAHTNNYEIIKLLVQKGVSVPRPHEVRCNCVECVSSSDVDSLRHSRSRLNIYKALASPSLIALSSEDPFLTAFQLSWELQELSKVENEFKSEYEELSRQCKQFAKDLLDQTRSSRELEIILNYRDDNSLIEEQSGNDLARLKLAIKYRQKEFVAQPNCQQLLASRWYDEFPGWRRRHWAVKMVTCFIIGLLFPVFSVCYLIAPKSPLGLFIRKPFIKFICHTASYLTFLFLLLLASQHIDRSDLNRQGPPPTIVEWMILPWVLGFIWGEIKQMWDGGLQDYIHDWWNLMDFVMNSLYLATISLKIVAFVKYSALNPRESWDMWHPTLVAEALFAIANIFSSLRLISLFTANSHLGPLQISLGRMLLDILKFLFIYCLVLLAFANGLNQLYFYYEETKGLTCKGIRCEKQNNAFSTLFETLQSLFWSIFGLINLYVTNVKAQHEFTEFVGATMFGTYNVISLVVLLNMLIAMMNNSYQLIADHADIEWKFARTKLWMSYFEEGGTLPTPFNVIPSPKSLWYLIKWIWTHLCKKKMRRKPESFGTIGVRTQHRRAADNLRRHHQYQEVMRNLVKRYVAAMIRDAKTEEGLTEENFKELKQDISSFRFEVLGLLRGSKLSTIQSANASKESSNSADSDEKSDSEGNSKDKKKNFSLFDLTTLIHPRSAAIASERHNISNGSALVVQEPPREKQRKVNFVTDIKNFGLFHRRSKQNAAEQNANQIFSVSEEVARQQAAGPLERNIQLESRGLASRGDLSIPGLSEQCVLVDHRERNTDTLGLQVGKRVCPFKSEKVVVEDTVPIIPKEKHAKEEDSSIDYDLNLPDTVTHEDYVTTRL
As to the kind of experiment: TRPC4 activity assay (FLIPR calcium fluorescence, Englerin A stimulation). The class given is cell-based. As to conditions: HEK-TREx hTRPC4 cells, 100 nM Englerin A stimulation; read-out: TRPC4 (IC50 class). How it is done:
ICLN-1694 cells (HEK-TREx hTRPC4) expressing TRPC4 were generated as follows. Commercially available HekTrex-293 cells were seeded at 0.7×10^6 cells/well in a 1×6-well plate 24 hrs prior to transfection using 2 mL cell growth media containing no antibiotics (1× DMEM/high glucose (Hyclone #SH30022.02); 10%0/fetal bovine serum (Sigma) 2 mM sodium pyruvate, 10 mM HEPES). […] On day 2, 2 μg of plasmid DNA plus 6 μl of Xtreme-GENE HP reagent in Optimem (200 μl total volume) was prepared and incubated for 15 min at room temperature. This plasmid solution was then gently overlayed dropwise onto each well and the plate was gently swirled to mix complex with the media for approximately 30 seconds. Transfected cells were incubated at 37° C. in a 10% C02 incubator for 24 hrs. The transfected cells were harvested and transferred into 2×150 mm dishes containing cell growth media with no antibiotics at 37° C.
The next day selection was initiated to generate a stable pool by adding cell growth media containing 150 μg/mL Hygromycin and 5 μg/mL Blasticidin and cells were allowed to grow. Media with the selection agent was changed every 1-2 days as needed to remove dead cells. After 7 days, the hygromycin concentration was reduced to 75 μg/mL and cells growth was allowed to continue.
Single clones were selected as follows. The stable pool was diluted to 10 cells/mL and seeded (100 μl/well) into 24×96 well plates (˜1 cell/well) and allowed to grow for 7 days in cell growth media. Fresh media (100 μl) was added and the cells allowed to grow for another 1-2 weeks and then stored frozen or used immediately.
10-point dose response curves were generated using the Echo-550 acoustic dispenser. Compound source plates were made by serially diluting compound stocks to create 10 mM, 1 mM, and 0.1 mM solutions in DMSO into Echo-certified LDV plates. The Echo then serially spotted 100% DMSO stock solutions into source dose response plates to generate a 4-fold dilution scheme. 100% DMSO was added to the spotted dose response plates to bring the final volume to 5 μl. […] of the dose response stock plate was then spotted into pre-incubation and stimulation assay plates. 50 μl of pre-incubation buffer and 100 μl of stimulation buffer was then added to the plates resulting in a final assay test concentration range of 30 μM to 0.0001 μM with a final DMSO concentration of 0.3%.
ICLN-1694 cells (HEK-TREx hTRPC4) were plated onto 384 well, black pdl-coated microplates and maintained in cell growth media supplemented with 1 μg/mL tetracycline the day prior to use for experiments. TRPC4 expression was induced by the application of 1 μg/mL tetracycline at the time of plating. […] Cells were incubated at room temperature, protected from light, for 60-90 minutes. After the incubation period, the dye was removed and replaced with 10 μl of EBSS. Cell, pre-incubation and stimulation plates were loaded onto the FLIPR-II and the assay was initiated. The FLIPR measured a 10 second baseline and then added 10 μl of 2X compounds (or controls). Changes in fluorescence were monitored for an additional 5 minutes. After a 5 minute pre-incubation, 20 μl of 2X Englerin A (with 1X compound or controls) was added to the cell plate. The final Englerin A stimulation concentration in the assay was 100 nM. After the Englerin A addition, changes in fluorescence were monitored for an additional 5 minutes.
Compound modulation of TRPC4 calcium response was determined as follows. After the Englerin A, fluorescence was monitored for a 5-minute period. The maximum relative fluorescence response (minus the control response of 1 μM of an internal control compound known to maximally block TRPC4 calcium response, the “REF INHIB” in the formula below) was captured and exported from the FLIPR.
Compound effect is calculated as % inhibition using the following formula:
[formula] wherein “RFU” is the relative fluorescent units.

For the molecule `CC1Cc2c(ncnc2Oc2ccc(F)cc2Cl)CN1c1cn[nH]c(=O)c1Cl` (single isomer, unassigned) [Compound 117], the IC50 fell in the range of 50 to 500 nM.
Then `O=c1[nH]ncc(N2CCc3c(ncnc3Oc3ccc(F)cc3Cl)C2)c1Cl` [Compound 104], with < 50 nM.
